{"source": "patent US12178867B2", "about": "“MHC class i associated peptides for prevention and treatment of multiple flavi virus” (priority 2018, dated 2024)", "key": {"[1]": {"tested_on": "peptide loaded T2 cells", "test": "CTL assay: peptide-stimulated PBMCs of naive HLA-A2+ donor co-cultured with peptide loaded T2 cells, flow cytometry (FIG. 3A)", "type": "cell-based, human", "method": "FIGS. 3A and 3B: (FIG. 3A) Utilizing a healthy (naive) human HLA-A2+ donor, peripheral blood mononuclear cells (PBMCs) were stimulated with peptide epitopes in a cytokine cocktail to induce antigen specific CTL response. These stimulated PBMCs were then assayed by co-culturing peptide loaded targets for antigen specific response. TAP-deficient cells (T2) were used for peptide loading, and blank T2 cells used as control. Expanded PBMCs were assayed for both CD107a degranulation and interferon gamma (IFN-g) markers by flow cytometry. All 6 peptide epitopes induced CD8+ CD107a and IFNg expression to peptide loaded T2 cells in a peptide specific manner. […] (FIG. 3B) Utilizing a healthy (naive) human HLA-A2+ donor, peripheral blood mononuclear cells (PBMCs) were stimulated with peptide epitopes in a cytokine cocktail to induce antigen specific CTL response. These stimulated PBMCs were then assayed by co-culturing with Hep2G infected cells (DV2/Zika). Uninfected HepG2 cells were used as control. Expanded PBMCs were assayed for both CD107a degranulation and interferon gamma (IFN-g) markers by flow cytometry.\nIn one experiment, utilizing a healthy (naive) human HLA-A2+ donor, peripheral blood mononuclear cells (PBMCs) were stimulated with peptide epitopes in a cytokine cocktail to induce antigen specific CTL response. […]"}, "[2]": {"tested_on": "peptide loaded HepG2 cells", "test": "CTL assay: peptide-stimulated PBMCs of naive HLA-A24+ donor co-cultured with peptide loaded HepG2 cells, flow cytometry (FIG. 4)", "type": "cell-based, human", "settings": "blank HepG2 cells as control", "method": "FIG. 4: Utilizing a healthy (naive) human HLA-A24+ donor, peripheral blood mononuclear cells (PBMCs) were stimulated with peptide epitopes in a cytokine cocktail to induce antigen specific CTL response. These stimulated PBMCs were then assayed by co-culturing peptide loaded targets for antigen specific response. Hep2G cells were used for peptide loading, and blank Hep2G cells used as control. Also used was HepG2 cells infected with Dengue (DV2) and Zika. Expanded PBMCs were assayed for both CD8/IFNg double expression by flow cytometry. All 4 peptide epitopes induced CD8+ IFNg expression to peptide loaded HepG2 cells in a peptide specific manner. […] FIG. 5: Transgenic A2 mice were immunized with 200 ng of NP-Dengue peptides. The spleen cells were isolated and then exposed to either Zika or Dengue infected cells. […] Acid stripping of the peptides makes the cells non-response.\nIn a further experiment, utilizing a healthy (naive) human HLA-A24+ donor, peripheral blood mononuclear cells (PBMCs) were stimulated with peptide epitopes in a cytokine cocktail to induce antigen specific CTL response. These stimulated PBMCs were then assayed by co-culturing peptide loaded targets for antigen specific response (FIG. 4). Hep2G cells were used for peptide loading, and blank Hep2G cells used as control. Also used was HepG2 cells infected with Dengue (DV2) and Zika. […]"}}}
{"sequence": "PMAAVGLLIVS (listed as Dengue virus) [SEQ ID NO: 2]", "values": [{"measurement": "IFNg+ effect", "setting": "[1]", "value": "particular pronounced IFNg+ effect"}, {"measurement": "CD8+ IFNg expression to peptide loaded HepG2 cells", "setting": "[2]", "value": "particular pronounced IFNg+ effect"}]}
